Each compound was assayed against T1, Full-length, GST-tagged, human CaMKIIδ (Homo sapiens, UniProt Q13557) (assay: CaMKIIδ binding assay (TR-FRET with BODIPY-labeled probe ligand)). Conditions: CaMKIIδ binding assay, results of Table 2.
T1 construct: Full-Length, Glutathione-S-Transferase(GST)-Tagged, Human CaMKIIδ was purchased from Carna Biosciences; purchased Carna Biosciences 02-111
T1 sequence (Q13557 1-478 isoform Q13557-12): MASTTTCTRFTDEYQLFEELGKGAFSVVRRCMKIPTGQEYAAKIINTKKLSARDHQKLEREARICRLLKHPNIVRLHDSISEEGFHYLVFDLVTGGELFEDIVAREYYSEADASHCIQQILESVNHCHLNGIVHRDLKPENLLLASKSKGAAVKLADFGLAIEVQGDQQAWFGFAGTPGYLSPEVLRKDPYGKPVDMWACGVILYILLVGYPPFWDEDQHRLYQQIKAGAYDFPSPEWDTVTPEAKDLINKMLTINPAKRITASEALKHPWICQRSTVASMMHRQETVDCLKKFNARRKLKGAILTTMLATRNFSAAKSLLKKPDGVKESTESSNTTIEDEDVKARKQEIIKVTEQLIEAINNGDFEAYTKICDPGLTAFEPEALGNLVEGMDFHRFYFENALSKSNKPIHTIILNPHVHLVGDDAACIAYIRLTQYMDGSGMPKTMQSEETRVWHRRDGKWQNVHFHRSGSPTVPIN
Summary of the method: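 TR-FRET probe-displacement binding: 0.5 nM GST-CaMKIIδ with 10 μg/mL calmodulin, 1 mM CaCl2, 0.21 nM Tb-anti-GST Ab and 300 nM BODIPY probe in HEPES pH 7.6 buffer. Eight-point 4-fold dilutions, 1 hr at room temperature. IC50 from logistic fit; 100% inhibition defined by 3 μM parent compound.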
`COc1cc2c(cc1Nc1ncc(-c3ccc(Cl)c(O[C@@H](C)Cn4cnnn4)c3)cn1)CN(C(=O)C(F)(F)F)CC2` [Example 460, (S)-1-(7-((5-(3-((1-(1H-tetrazol-1-yl)propan-2-yl)oxy)-4-chlorophenyl)pyrimidin-2-yl)amino)-6-methoxy-3,4-dihydroisoquinolin-2(1H)-yl)-2,2,2-trifluoroethan-1-one] was tested, and the IC50 was ≥ 100 nM.
In the case of `C[C@@H](Cn1cnnn1)Oc1cc(-c2cnc(Nc3cn(C4CCN(C5CCOC(C)(C)C5)CC4)nc3C(F)(F)F)nc2)ccc1Cl` (stereo partly drawn) [Example 557, 5-(3-(((S)-1-(1H-tetrazol-1-yl)propan-2-yl)oxy)-4-chlorophenyl)-N-(1-(1-(2,2-dimethyltetrahydro-2H-pyran-4-yl)piperidin-4-yl)-3-(trifluoromethyl)-1H-pyrazol-4-yl)pyrimidin-2-amine], the IC50 is reported as < 10 nM.
In the case of `COc1cc2c(cc1Nc1ncc(-c3ccc(Cl)c(O[C@@H](C)Cn4cnnn4)c3)cn1)CCN(C=O)C2` [Example 471, (S)-6-((5-(3-((1-(1H-tetrazol-1-yl)propan-2-yl)oxy)-4-chlorophenyl)pyrimidin-2-yl)amino)-7-methoxy-3,4-dihydroisoquinoline-2(1H)-carbaldehyde], the IC50 is reported as 10 to 100 nM.
`C[C@@H](Cn1cnnn1)Oc1cc(-c2cnc(Nc3cc(C4CCN(C5COC5)CC4)c(F)cc3F)nc2)ccc1Cl` [Example 578, (S)-5-(3-((1-(1H-tetrazol-1-yl)propan-2-yl)oxy)-4-chlorophenyl)-N-(2,4-difluoro-5-(1-(oxetan-3-yl)piperidin-4-yl)phenyl)pyrimidin-2-amine] gave an IC50 of 10 to 100 nM.
For `COc1cc2c(cc1Nc1ncc(-c3ccc(Cl)c(O[C@@H](C)Cn4cnnn4)c3)cn1)CCN(C1CCOCC1)C2` [Example 474, (S)-N-(5-(3-((1-(1H-tetrazol-1-yl)propan-2-yl)oxy)-4-chlorophenyl)pyrimidin-2-yl)-7-methoxy-2-(tetrahydro-2H-pyran-4-yl)-1,2,3,4-tetrahydroisoquinolin-6-amine], the IC50 was < 10 nM.
`C[C@@H](Cn1cnnn1)Oc1cc(-c2cnc(Nc3ccc4c(c3)N(C(=O)CCCN(C)C)CC4)nc2)ccc1Cl` [Example 436, (S)-1-(6-((5-(3-((1-(1H-tetrazol-1-yl)propan-2-yl)oxy)-4-chlorophenyl)pyrimidin-2-yl)amino)indolin-1-yl)-4-(dimethylamino)butan-1-one] was tested, and the IC50 was < 10 nM.
Work on `Cc1cnc(N2CCC(N3CCOCC3)CC2)cc1Nc1ncc(-c2ccc(Cl)c(O[C@@H](C)Cn3cnnn3)c2)cn1` [Example 478, (S)-5-(3-((1-(1H-tetrazol-1-yl)propan-2-yl)oxy)-4-chlorophenyl)-N-(5-methyl-2-(4-morpholinopiperidin-1-yl)pyridin-4-yl)pyrimidin-2-amine] yielded an IC50 of 10 to 100 nM.

Same assay, conditions: CaMKIIδ binding assay; activity class per Table 2
For `CC(C)c1nn(C2CC3(CNC3)C2)cc1Nc1ncc(-c2ccc(Cl)c(O[C@@H](C)Cn3cnnn3)c2)cn1` [Example 934, (S)-5-(3-((1-(1H-tetrazol-1-yl)propan-2-yl)oxy)-4-chlorophenyl)-N-(3-isopropyl-1-(2-azaspiro[3.3]heptan-6-yl)-1H-pyrazol-4-yl)pyrimidin-2-amine], the IC50 was < 10 nM.
For `CC(Cn1cnnn1)Oc1cc(-c2cnc(Nc3cn(C4CCC(O)(CN5CCOCC5)CC4)nc3C(F)(F)F)nc2)ccc1Cl` [Example 918, trans-4-(4-((5-(3-(((S)-1-(1H-tetrazol-1-yl)propan-2-yl)oxy)-4-chlorophenyl)pyrimidin-2-yl)amino)-3-(trifluoromethyl)-1H-pyrazol-1-yl)-1-(morpholinomethyl)cyclohexan-1-ol], the IC50 was < 10 nM.
`C[C@@H](Cn1cnnn1)Oc1cc(-c2cnc(Nc3cn(C4CC5(C4)CN(C4(C#N)CCOCC4)C5)nc3OCC(F)(F)F)nc2)ccc1Cl` [Example 1010, (S)-4-(6-(4-((5-(3-((1-(1H-tetrazol-1-yl)propan-2-yl)oxy)-4-chlorophenyl)pyrimidin-2-yl)amino)-3-(2,2,2-trifluoroethoxy)-1H-pyrazol-1-yl)-2-azaspiro[3.3]heptan-2-yl)tetrahydro-2H-pyran-4-carbonitrile] was tested, and the IC50 was < 10 nM.
For `CO[C@H]1CC[C@H](N2CC3(CC(n4cc(Nc5ncc(-c6ccc(Cl)c(O[C@@H](C)Cn7cnnn7)c6)cn5)c(C(C)C)n4)C3)C2)CC1` [Example 980, 5-(3-(((S)-1-(1H-tetrazol-1-yl)propan-2-yl)oxy)-4-chlorophenyl)-N-(3-isopropyl-1-(2-((1r,4r)-4-methoxycyclohexyl)-2-azaspiro[3.3]heptan-6-yl)-1H-pyrazol-4-yl)pyrimidin-2-amine], the IC50 was < 10 nM.

Same assay, conditions: Table 2; CaMKIIδ binding assay, activity given as class A/B/C
Compound `CC(=O)NCCn1cc(Nc2ncc(-c3ccc(Cl)c(O[C@@H](C)Cn4cnnn4)c3)cn2)c(C(F)(F)F)n1` [Example 846, (S)-N-(2-(4-((5-(3-((1-(1H-tetrazol-1-yl)propan-2-yl)oxy)-4-chlorophenyl)pyrimidin-2-yl)amino)-3-(trifluoromethyl)-1H-pyrazol-1-yl)ethyl)acetamide] has an IC50 of 10 to 100 nM.
`C[C@@H](Cn1cnnn1)Oc1cc(-c2cnc(Nc3cn(CCCCO)nc3OCC(F)(F)F)nc2)ccc1Cl` [Example 783, (S)-4-(4-((5-(3-((1-(1H-tetrazol-1-yl)propan-2-yl)oxy)-4-chlorophenyl)pyrimidin-2-yl)amino)-3-(2,2,2-trifluoroethoxy)-1H-pyrazol-1-yl)butan-1-ol] was tested, and the IC50 was < 10 nM.
With `C[C@@H](Cn1cnnn1)Oc1cc(-c2cnc(Nc3nc4ccccc4n3C)nc2)ccc1Cl` [Example 745, (S)-N-(5-(3-((1-(1H-tetrazol-1-yl)propan-2-yl)oxy)-4-chlorophenyl)pyrimidin-2-yl)-1-methyl-1H-benzo[d]imidazol-2-amine] the IC50 was ≥ 100 nM.
For `C[C@@H](Cn1cnnn1)Oc1cc(-c2cnc(Nc3cn([C@H]4CC[C@@H](N5CCOCC5)CC4)nc3OCC(F)(F)F)nc2)ccc1Cl` [Example 780, 5-(3-(((S)-1-(1H-tetrazol-1-yl)propan-2-yl)oxy)-4-chlorophenyl)-N-(1-(cis-4-morpholinocyclohexyl)-3-(2,2,2-trifluoroethoxy)-1H-pyrazol-4-yl)pyrimidin-2-amine], the IC50 was < 10 nM.
In the case of `C[C@@H](Cn1cnnn1)Oc1cc(-c2cnc(Nc3cn(C4CCN(C5CCOCC5)CC4)nc3OCC(F)(F)F)nc2)ccc1F` [Example 789, (S)-5-(3-((1-(1H-tetrazol-1-yl)propan-2-yl)oxy)-4-fluorophenyl)-N-(1-(1-(tetrahydro-2H-pyran-4-yl)piperidin-4-yl)-3-(2,2,2-trifluoroethoxy)-1H-pyrazol-4-yl)pyrimidin-2-amine], the IC50 is reported as < 10 nM.
With `Cc1ccc(-c2cnc(Nc3cn([C@H]4CC[C@@H](N5CCOCC5)CC4)nc3OCC(F)(F)F)nc2)cc1O[C@@H](C)Cn1cnnn1` [Example 812, 5-(3-(((S)-1-(1H-tetrazol-1-yl)propan-2-yl)oxy)-4-methylphenyl)-N-(1-(cis-4-morpholinocyclohexyl)-3-(2,2,2-trifluoroethoxy)-1H-pyrazol-4-yl)pyrimidin-2-amine] the IC50 was < 10 nM.
`C[C@@H](Cn1cnnn1)Oc1cc(-c2cnc(Nc3cn(CC(C)(C)O)nc3OCC(F)(F)F)nc2)ccc1Cl` [Example 816, (S)-1-(4-((5-(3-((1-(1H-tetrazol-1-yl)propan-2-yl)oxy)-4-chlorophenyl)pyrimidin-2-yl)amino)-3-(2,2,2-trifluoroethoxy)-1H-pyrazol-1-yl)-2-methylpropan-2-ol] was tested, and the IC50 was < 10 nM.
In the case of `C[C@@H](Cn1cc(F)cn1)Oc1cc(-c2cnc(Nc3cn([C@H]4CC[C@H](N5CCOCC5)CC4)nc3OCC(F)(F)F)nc2)ccc1C#N` [Example 830, 2-(((S)-1-(4-fluoro-1H-pyrazol-1-yl)propan-2-yl)oxy)-4-(2-((1-(trans-4-morpholinocyclohexyl)-3-(2,2,2-trifluoroethoxy)-1H-pyrazol-4-yl)amino)pyrimidin-5-yl)benzonitrile], the IC50 is reported as < 10 nM.
`CCn1cc(Nc2ncc(-c3ccc(Cl)c(O[C@@H](C)Cn4cnnn4)c3)cn2)c(C(=O)N2CCOCC2)n1` [Example 866, (S)-(4-((5-(3-((1-(1H-tetrazol-1-yl)propan-2-yl)oxy)-4-chlorophenyl)pyrimidin-2-yl)amino)-1-ethyl-1H-pyrazol-3-yl)(morpholino)methanone] gave an IC50 of 10 to 100 nM.

Same assay, conditions: Table 2; activity class for CaMKIIδ
In the case of `C[C@@H](Cn1cnnn1)Oc1cc(-c2cnc(Nc3cn([C@@H]4CCCC[C@H]4O)nc3C(F)(F)F)nc2)ccc1Cl` (mixture of isomers) [Example 704, trans-2-(4-((5-(3-(((S)-1-(1H-tetrazol-1-yl)propan-2-yl)oxy)-4-chlorophenyl)pyrimidin-2-yl)amino)-3-(trifluoromethyl)-1H-pyrazol-1-yl)cyclohexan-1-ol], the IC50 is reported as < 10 nM.
`C[C@@H](Cn1cnnn1)Oc1cc(-c2cnc(Nc3cc(-c4ccccc4)nn3C)nc2)ccc1Cl` [Example 719, (S)-5-(3-((1-(1H-tetrazol-1-yl)propan-2-yl)oxy)-4-chlorophenyl)-N-(1-methyl-3-phenyl-1H-pyrazol-5-yl)pyrimidin-2-amine] showed an IC50 of 10 to 100 nM.
`COc1nn(C2CCN(C3COC3)CC2)cc1Nc1ncc(-c2ccc(Cl)c(O[C@@H](C)Cn3cnnn3)c2)cn1` [Example 661, (S)-5-(3-((1-(1H-tetrazol-1-yl)propan-2-yl)oxy)-4-chlorophenyl)-N-(3-methoxy-1-(1-(oxetan-3-yl)piperidin-4-yl)-1H-pyrazol-4-yl)pyrimidin-2-amine] was tested, and the IC50 was < 10 nM.
With `COc1nc(N2CCN(C3CCOCC3)CC2)ccc1Nc1ncc(-c2ccc(Cl)c(O[C@@H](C)Cn3cnnn3)c2)cn1` [Example 616, (S)-5-(3-((1-(1H-tetrazol-1-yl)propan-2-yl)oxy)-4-chlorophenyl)-N-(2-methoxy-6-(4-(tetrahydro-2H-pyran-4-yl)piperazin-1-yl)pyridin-3-yl)pyrimidin-2-amine] the IC50 was < 10 nM.

Reference: patent US10543212B2, “Substituted amines for treating cardiac diseases” (Cardurion Pharmaceuticals, LLC, priority 2017, dated 2020)
